Data reported in patent US20220354834A1, “METHODS AND MATERIALS FOR TREATING NEUROTOXICITY” (Cavion, Inc., priority 2019, published 2022).

Experiments:
[1] = test system: RPMI-8226 human myeloma xenografts; test: In vivo BTZ and combination (BTZ and CX-8998) anti-tumor (interference) study, tumor volume; set-up: species or system athymic nude mouse
Description: (§1) Care and husbandry of mice complied with USDA (U.S. Department of Agriculture) Animal Welfare Act and START IACUC (Institutional Animal Care and Use Committee) regulations. The protocol was reviewed and approved by START IACUC. Mice were individually housed in Sealsafe® Plus ventilated cages (Techniplast, West Chester, Pa., USA) and fed with Teklad 2919 (Envigo, Somerset, N.J., USA), irradiated, 19% protein, 9% fat and 4% fiber mouse chow. Mice were maintained under controlled environmental conditions (22+/−2° C. temperature, 55+/−10% relative humidity and 12-hour light/dark cycle (7 a.m.-7 p.m.).
(§2) South Texas Accelerated Research Therapeutics (START) (San Antonio, Tex., USA) conducted this study. […] The 30 mg/kg dose was tolerated in preclinical safety studies and anticipated to result in exposures in excess of the therapeutic range for 28 days. Body weight, TV and animal observations were collected twice per week to day 18 (termination) for vehicle control mice and twice per week to day 28 (termination) for each of the other 3 groups. Mean±SD body weight and TV were analyzed with Kruskal-Wallis and Dunn multiple comparison test at day 18 and with Mann Whitney test at day 28 with statistical significance at p<0.05.

[2] = CIPN-reversal study: body weight, tolerability, mortality; assay type: in vivo
Description: Rats were housed 2-3 per cage under similar environmental conditions as nude mice in the interference study.
(§3) Wistar female rats (n=52) (Envigo, Correzzano, Italy) at 10-11 weeks of age were utilized. The study was divided into 2 phases of 4 weeks each. […] Body weight was measured periodically during phase 1 from baseline (day 1) to day 28. At baseline and conclusion of phase 1 (day 28), nerve conduction velocity (NCV) was performed on caudal and sciatic nerves and Dynamic Aesthesiometer Test (DAT) measured mechanical threshold (MT) of the hind paw. […] Body weight was measured periodically from baseline (day 28) to day 56 (termination). NCV and MT were measured in all 4 groups at baseline and on day 35 and 56. […] At termination, sciatic nerves were obtained for β-tubulin polymerization and skin samples were procured for intraepidermal nerve fiber (IENF) density and histopathology.

[3] = test system: hind paw mechanical allodynia (BTZ-induced CIPN); test: CIPN-reversal study: Dynamic Aesthesiometer Test, mechanical threshold; assay type: in vivo, Wistar rat
Description: as §3
MT was assessed with the DAT device (Model 37450, Ugo Basile Biological Instruments, Comerio, Italy). After acclimation, a servo-controlled pointed metallic filament (0.5 mm diameter) was placed on plantar surface of the hind paw and exerted a progressive punctate pressure up to 50 grams within 20 seconds. The pressure elicited a voluntary hind paw withdrawal response that was recorded and represented MT index. MT was collected alternatively on each side every 2 minutes on 3 occasions to yield a mean value. Mean MT values represented maximum pressure (grams) tolerated by each rat. Exposure of each animal to mechanical stimulus was limited to 30 seconds.

β-tubulin = β-tubulin polymerization assay in sciatic nerve; assay type: in vivo, Wistar rat; settings: week 8
Description: as §3
(§4) At day 56, animals were euthanized by CO2 inhalation and tissue samples were procured from 4 rats per group. Right sciatic nerve was frozen in liquid nitrogen for β-tubulin polymerization assay and plantar glabrous skin samples were collected for IENF density.
Protein extracts from sciatic nerves were processed similar to the proteasome assay except for lysis buffer that contained freshly added protease and […] (10 mM sodium orthovanadate, 4 mM phenylmethylsulfonyl fluoride, 1% aprotinin and 20 mM sodium pyrophosphate). Protein extracts were centrifuged (14000 rpm for 10 minutes at 4° C.) to separate soluble (S) free tubulin fractions from polymerized (P) fractions. Supernatants were collected and pellets of polymerized tubulin were resuspended by sonication for 20 seconds in a volume of lysis buffer supplemented with 0.5% sodium deoxycholate (equivalent to S fraction). Protein aliquots (10 μg) were placed onto 13% SDS-PAGE and, after electrophoresis, were transferred to nitrocellulose filters. Immunoblotting analysis was performed using mouse anti-β-tubulin antibody. After incubation with primary antibody, membrane was washed and incubated with horseradish peroxidase conjugated to […] (Perkin Elmer Italia SPA, Monza, Italy). The ECL chemiluminescence system (Amersham GE Healthcare Europe GmbH, Milano, Italy) was used for detection. Band intensity was quantified with Gel Logic 100 Image System (Eastman Kodak, Rochester, N.Y., USA). Final mean values were obtained from triplicate experiments and data were expressed as percentage of P/P+S in treated rats compared to controls.

[4] = test system: intraepidermal nerve fibers (BTZ-induced CIPN); test: IENF density and histopathology of plantar glabrous skin; assay type: in vivo, Wistar rat; settings: for IENF DENSITY, Difference in rank sum (Dunn's Multiple Comparison Test): week 8
Description: as §3, §4
Plantar glabrous skin samples (5 mm) from hind paws were fixed in 2% PLP (paraformaldehyde-lysine-sodium periodate) for 24 hours at 4° C. and cryoprotected overnight. Samples were serially cut with a cryostat to yield 20 μm sections. Three sections from each footpad were randomly selected and immunostained with rabbit polyclonal anti-protein gene product 9.5 (PGP 9.5; GeneTex, Irvine, Calif., USA) in combination with biotinylated anti-rabbit IgG and Vector SG substrate kit peroxidase (Vector Laboratories, Burlingame, Calif.) using a free-floating protocol. A blinded observer counted total number of immune-positive IENF in each section under light microscopy at high magnification with a microscope video camera. Individual fibers were counted that crossed dermal-epidermal interface. Secondary branches within epidermis were excluded. Length of epidermis was measured to generate linear density of IENF/millimeter as described elsewhere (Canta et al., 2016 Neurobiol Aging 45:136-148).

[5] = In vivo anti-tumor (interference) study: body weight; set-up: species or system athymic nude mouse; settings: 28 days
Description: as §1, §2

[6] = BTZ vs BTZ+ CX-8998 3 mg/kg, P > 0.05 ns
[7] = BTZ vs BTZ+ CX-8998 10 mg/kg, P > 0.05 ns
[8] = BTZ vs BTZ+ CX-8998 30 mg/kg, P > 0.05 ns
[9] = BTZ+ CX-8998 3 mg/kg vs BTZ+ CX-8998 10 mg/kg, P > 0.05 ns
[10] = BTZ+ CX-8998 3 mg/kg vs BTZ+ CX-8998 30 mg/kg, P > 0.05 ns
[11] = BTZ+ CX-8998 10 mg/kg vs BTZ+ CX-8998 30 mg/kg, P > 0.05 ns
[12] = CTRL vs BTZ+ CX-8998 3 mg/kg, P > 0.05 ns
[13] = CTRL vs BTZ+ CX-8998 10 mg/kg, P < 0.05 *
[14] = CTRL vs BTZ+ CX-8998 30 mg/kg, P > 0.05 ns
[15] = CTRL vs BTZ+ CX-8998 3 mg/kg, P < 0.05 *

Structure (SMILES): CC(C)C[C@H](NC(=O)[C@H](Cc1ccccc1)NC(=O)c1cnccn1)B(O)O [BTZ, bortezomib, reference compound]
- TUMOR GROWTH DAY 18, Difference in rank sum (Dunn's Multiple Comparison Test) ([1]; Vehicle Control vs BTZ, P < 0.001 ***): 13.13
- tumor volume (TV) ([1]; day 18, BTZ alone 1 mg/kg vs vehicle control, p<0.001): significantly reduced TV
- tumor volume (TV) trend ([1]; day 18 through day 28, BTZ alone): tended to increase
- body weight change ([2]; rat, in vivo): not significantly different
- tolerability ([2]; rat, in vivo): well tolerated
- DYNAMIC TEST 8 WEEKS, Difference in rank sum (Dunn's Multiple Comparison Test) ([3]; CTRL vs BTZ, P < 0.001 ***): 23.19
- DYNAMIC TEST 5 WEEKS, Difference in rank sum (Dunn's Multiple Comparison Test) ([3]; CTRL vs BTZ, P < 0.05 *): 17.24
- mechanical threshold (MT) in hind paws ([3]; week 4, BTZ vs control, p<0.0001): significantly reduced
- TUBULIN POLYMERIZATION, Difference in rank sum (Dunn's Multiple Comparison Test) (β-tubulin; CTRL vs BTZ, P < 0.05 *): −14.74
- β-tubulin polymerization (%) (β-tubulin; BTZ alone vs control, p<0.05): significantly increased
- IENF density (number of fibers per millimeter) ([4]; BTZ alone vs control, p<0.001): significantly decreased
- IENF DENSITY, Difference in rank sum (Dunn's Multiple Comparison Test) ([4]; CTRL vs BTZ, P < 0.001 ***): 28.99
- body weight ([5]; 1 mg/kg BTZ alone iv twice weekly): transient body weight loss during first two weeks of treatment and no weight gain at day 18 and 28

Structure (SMILES): CC(C)c1ccc(CC(=O)N[C@H](C)c2ccc(OCC(F)(F)F)cn2)cc1 [CX-8998, (R)-2-(4-Isopropylphenyl)-N-(1-(5-(2,2,2-Trifluoroethoxy)pyridin-2-yl)ethyl)acetamide]
- TUMOR GROWTH DAY 18, Difference in rank sum (Dunn's Multiple Comparison Test) ([1]; BTZ vs BTZ+ CX-8998, P > 0.05 ns): −3.000
- TUMOR GROWTH DAY 18, Difference in rank sum (Dunn's Multiple Comparison Test) ([1]; Vehicle Control vs BTZ+ cx-8998, P < 0.05 *): 10.13
- tolerability ([2]; BTZ in combination with CX-8998): well tolerated
- mortality (animals) ([2]; one each in combinations of BTZ with 3 mg/kg and 10 mg/kg CX-8998): two
- body weight change ([2]; weeks 5 and 8, BTZ in combination with 3, 10 and 30 mg/kg CX-8998): not significantly different
- DYNAMIC TEST 5 WEEKS, Difference in rank sum (Dunn's Multiple Comparison Test) [3, 6]: −13.99
- DYNAMIC TEST 8 WEEKS, Difference in rank sum (Dunn's Multiple Comparison Test) [3, 6]: −15.63
- DYNAMIC TEST 5 WEEKS, Difference in rank sum (Dunn's Multiple Comparison Test) [3, 7]: −0.7411
- DYNAMIC TEST 8 WEEKS, Difference in rank sum (Dunn's Multiple Comparison Test) [3, 7]: −6.500
- DYNAMIC TEST 5 WEEKS, Difference in rank sum (Dunn's Multiple Comparison Test) [3, 8]: −6.679
- DYNAMIC TEST 8 WEEKS, Difference in rank sum (Dunn's Multiple Comparison Test) [3, 8]: −9.688
- DYNAMIC TEST 8 WEEKS, Difference in rank sum (Dunn's Multiple Comparison Test) [3, 9]: 9.125
- DYNAMIC TEST 5 WEEKS, Difference in rank sum (Dunn's Multiple Comparison Test) [3, 10]: 7.313
- DYNAMIC TEST 8 WEEKS, Difference in rank sum (Dunn's Multiple Comparison Test) [3, 10]: 5.938
- DYNAMIC TEST 5 WEEKS, Difference in rank sum (Dunn's Multiple Comparison Test) [3, 11]: −5.938
- DYNAMIC TEST 8 WEEKS, Difference in rank sum (Dunn's Multiple Comparison Test) [3, 11]: −3.188
- DYNAMIC TEST 5 WEEKS, Difference in rank sum (Dunn's Multiple Comparison Test) [3, 12]: 3.250
- DYNAMIC TEST 8 WEEKS, Difference in rank sum (Dunn's Multiple Comparison Test) [3, 12]: 7.563
- DYNAMIC TEST 5 WEEKS, Difference in rank sum (Dunn's Multiple Comparison Test) [3, 13]: 16.50
- DYNAMIC TEST 8 WEEKS, Difference in rank sum (Dunn's Multiple Comparison Test) [3, 13]: 16.69
- DYNAMIC TEST 5 WEEKS, Difference in rank sum (Dunn's Multiple Comparison Test) [3, 14]: 10.56
- DYNAMIC TEST 8 WEEKS, Difference in rank sum (Dunn's Multiple Comparison Test) [3, 14]: 13.50
- TUBULIN POLYMERIZATION, Difference in rank sum (Dunn's Multiple Comparison Test) (β-tubulin; [6]): −4.000
- TUBULIN POLYMERIZATION, Difference in rank sum (Dunn's Multiple Comparison Test) (β-tubulin; [7]): −4.000
- TUBULIN POLYMERIZATION, Difference in rank sum (Dunn's Multiple Comparison Test) (β-tubulin; [8]): 15.00
- TUBULIN POLYMERIZATION, Difference in rank sum (Dunn's Multiple Comparison Test) (β-tubulin; [9]): 0.000
- TUBULIN POLYMERIZATION, Difference in rank sum (Dunn's Multiple Comparison Test) (β-tubulin; BTZ+ CX-8998 3 mg/kg vs BTZ+ CX-8998 30 mg/kg, P < 0.05 *): 19.00
- TUBULIN POLYMERIZATION, Difference in rank sum (Dunn's Multiple Comparison Test) (β-tubulin; BTZ+ CX-8998 10 mg/kg vs BTZ+ CX-8998 30 mg/kg, P < 0.05 *): 19.00
- TUBULIN POLYMERIZATION, Difference in rank sum (Dunn's Multiple Comparison Test) (β-tubulin; [15]): −15.64
- TUBULIN POLYMERIZATION, Difference in rank sum (Dunn's Multiple Comparison Test) (β-tubulin; [13]): −15.46
- TUBULIN POLYMERIZATION, Difference in rank sum (Dunn's Multiple Comparison Test) (β-tubulin; [14]): 0.2576
- IENF DENSITY, Difference in rank sum (Dunn's Multiple Comparison Test) [4, 6]: −10.93
- IENF DENSITY, Difference in rank sum (Dunn's Multiple Comparison Test) [4, 7]: −0.04167
- IENF DENSITY, Difference in rank sum (Dunn's Multiple Comparison Test) ([4]; BTZ vs BTZ+ CX-8998 30 mg/kg, P < 0.05 *): −20.54
- IENF DENSITY, Difference in rank sum (Dunn's Multiple Comparison Test) [4, 9]: 10.89
- IENF DENSITY, Difference in rank sum (Dunn's Multiple Comparison Test) [4, 10]: −9.611
- IENF DENSITY, Difference in rank sum (Dunn's Multiple Comparison Test) ([4]; BTZ+ CX-8998 10 mg/kg vs BTZ+ CX-8998 30 mg/kg, P < 0.01 **): −20.50
- IENF DENSITY, Difference in rank sum (Dunn's Multiple Comparison Test) [4, 15]: 18.06
- IENF DENSITY, Difference in rank sum (Dunn's Multiple Comparison Test) ([4]; CTRL vs BTZ+ CX-8998 10 mg/kg, P < 0.001 ***): 28.94
- IENF DENSITY, Difference in rank sum (Dunn's Multiple Comparison Test) [4, 14]: 8.444
- body weight ([5]; 1 mg/kg BTZ in combination with 30 mg/kg CX-8998 orally once daily): transient body weight loss during first two weeks of treatment and no weight gain at day 18 and 28
